These results are taken from US9833448B2, “Piperidinone carboxamide azaindane CGRP receptor antagonists” (Merck Sharp & Dohme Corp., priority 2010, dated 2017).

Assay [1] has as its system headache induced by CGRP infusion. The settings on record: control group (Petersen et al. 2005); cited from earlier work.
Assay [2] relates to acute attacks of migraine. The settings on record: cited from earlier work.
In assay [3] the test system is facial blood flow. The settings on record: marmoset (Doods et al. 2000); cited from earlier work.
Assay [4] concerns the target recombinant human CL receptor/RAMP1 (Homo sapiens (Human), UniProt O60894+Q16602). The assay is described as follows: Recombinant receptor binding assay (125I-hCGRP). Here is the method: Human CL receptor (Genbank accession number L76380) was subcloned into the expression vector pIREShyg2 (BD Biosciences Clontech) as a 5′NheI and 3′ PmeI fragment. Human RAMP1 (Genbank accession number AJ001014) was subcloned into the expression vector pIRESpuro2 (BD Biosciences Clontech) as a 5′NheI and 3′NotI fragment. HEK 293 cells (human embryonic kidney cells; ATCC #CRL-1573) were cultured in DMEM with 4.5 g/L glucose, 1 mM sodium pyruvate and 2 mM glutamine supplemented with 10% fetal bovine serum (FBS), 100 units/mL penicillin and 100 µg/mL streptomycin, and maintained at 37° C. and 95% humidity. Cells were subcultured by treatment with 0.25% trypsin with 0.1% EDTA in HBSS. Stable cell line generation was accomplished by co-transfecting 10 μg of DNA with 30 μg Lipofectamine 2000 (Invitrogen) in 75 cm^2 flasks. CL receptor and RAMP1 expression constructs were co-transfected in equal amounts. Twenty-four hours after transfection the cells were diluted and selective medium (growth medium+300 μg/mL hygromycin and 1 μg/mL puromycin) was added the following day. A clonal cell line was generated by single cell deposition utilizing a FACS Vantage SE (Becton Dickinson). Growth medium was adjusted to 150 μg/mL hygromycin and 0.5 μg/mL puromycin for cell propagation.
Recombinant Receptor Binding Assay:
The cell suspension was disrupted with a laboratory homogenizer and centrifuged at 48,000 g to isolate membranes. The pellets were resuspended in harvest buffer plus 250 mM sucrose and stored at −70° C. For binding assays, 20 μg of membranes were incubated in 1 mL binding buffer (10 mM HEPES, pH 7.4, 5 mM MgCl2, and 0.2% BSA) for 3 h at room temperature containing 10 pM ^125I-hCGRP (GE Healthcare) and antagonist. The assay was terminated by filtration through 96-well GFB glass fiber filter plates (PerkinElmer) that had been blocked with 0.05% polyethyleneimine. The filters were washed 3 times with ice-cold assay buffer (10 mM HEPES, pH 7.4, and 5 mM MgCl2). Scintillation fluid was added and the plates were counted on a Topcount (Packard). Non-specific binding was determined and the data analysis was carried out with the apparent dissociation constant (Ki) determined by using a non-linear least squares fitting the bound CPM data to the equation below:
[formula] Where Y is observed CPM bound, Ymax is total bound counts, Ymin is non specific bound counts, (Ymax−Ymin) is specific bound counts, % Imax is the maximum percent inhibition, % I min is the minimum percent inhibition, radiolabel is the probe, and the Kd is the apparent dissociation constant for the radioligand for the receptor as determined by hot saturation experiments.

The next assay deals with middle meningeal artery. The conditions noted are these: rats, prior administration (Williamson et al. 1997); cited from earlier work.
The test system of assay [5] is facial blood flow. The conditions noted are these: rat (Escott et al. 1995); cited from earlier work.
[6] abbreviates: exemplary compounds of the invention, 10 pM 125I-hCGRP, membranes of HEK 293 cells, read-out: Ki.
Where [7] appears, read: analogues disclosed in U.S. Pat. No. 7,390,798 and US 2010/0179166, read-out: Ki (CGRP binding data).

Where a name gives a salt, the structure may show the parent alone. Read-outs that look alike come from different tables or passages of the source. Ends that are not written are not given here.

recombinant human CL receptor/RAMP1, sequence (Q16602 23-461): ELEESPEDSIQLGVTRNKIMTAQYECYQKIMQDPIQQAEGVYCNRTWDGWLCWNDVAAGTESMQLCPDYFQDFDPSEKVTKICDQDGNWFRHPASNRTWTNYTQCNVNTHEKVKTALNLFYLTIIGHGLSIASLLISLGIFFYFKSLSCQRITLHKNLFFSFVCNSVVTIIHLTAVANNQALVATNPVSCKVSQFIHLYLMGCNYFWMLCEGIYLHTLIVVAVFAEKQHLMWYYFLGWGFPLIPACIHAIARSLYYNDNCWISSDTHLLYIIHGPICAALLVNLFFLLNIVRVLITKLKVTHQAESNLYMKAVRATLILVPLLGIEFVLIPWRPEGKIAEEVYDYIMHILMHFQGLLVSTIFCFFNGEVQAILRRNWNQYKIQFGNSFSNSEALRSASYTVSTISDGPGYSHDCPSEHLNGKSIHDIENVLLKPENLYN
recombinant human CL receptor/RAMP1, sequence (O60894 27-148): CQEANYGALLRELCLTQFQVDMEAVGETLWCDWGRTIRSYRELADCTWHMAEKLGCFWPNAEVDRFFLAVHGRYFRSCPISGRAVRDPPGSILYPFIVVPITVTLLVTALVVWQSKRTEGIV

For the compound `NCCCC[C@H](NC(=O)[C@@H](Cc1cc(Br)c(O)c(Br)c1)NC(=O)N1CCC(N2Cc3ccccc3NC2=O)CC1)C(=O)N1CCN(c2ccncc2)CC1` [BIBN4096BS], the “prevention of headache induced by CGRP infusion” value in assay [1] was “able to prevent headache induced by CGRP infusion”. Further, the “effectiveness in treating acute attacks of migraine” value in assay [2] (clinical trials (Olesen et al. 2004)) is “effective in treating acute attacks of migraine”. In the assay with facial blood flow [3], the “effect on increase in facial blood flow” value is reported as “could be blocked”. As a reminder, the Ki is a dissociation constant, usually derived from enzyme kinetics or from competition with a known ligand. As to `C[C@@H]1[C@H](c2ccccc2)C[C@H](NC(=O)c2cnc3c(c2)C[C@@]2(C3)C(=O)Nc3ncccc32)C(=O)N1CC(F)(F)F` [Example 1, (6S)—N-[(3S,5S,6R)-6-Methyl-2-oxo-5-phenyl-1-(2,2,2-trifluoroethyl)piperidin-3-yl]-2′-oxo-1′,2′,5,7-tetrahydrospiro[cyclopenta[b]pyridine-6,3′-pyrrolo[2,3-b]pyridine]-3-carboxamide], the Ki in assay [4] (setting [6]) was found to be 0.067 nM. On the same count and under the same terms, to `Cc1ccccc1[C@@H]1C[C@H](NC(=O)c2cnc3c(c2)C[C@@]2(C3)C(=O)Nc3ncccc32)C(=O)N(CC(F)(F)F)[C@@H]1C` [Example 3, (6S)—N-[(3 S,5S,6R)-6-Methyl-5-(2-methylphenyl)-2-oxo-1-(2,2,2-trifluoroethyl)piperidin-3-yl]-2′-oxo-1′,2′,5,7-tetrahydrospiro[cyclopenta[b]pyridine-6,3′-pyrrolo[2,3-b]pyridine]-3-carboxamide] belongs 0.067 nM; to `C[C@@H]1[C@H](c2cc(F)cc(F)c2F)C[C@H](NC(=O)c2cnc3c(c2)C[C@@]2(C3)C(=O)Nc3ncccc32)C(=O)N1CC(F)(F)F` [Example 5, (6S)—N-[(3S,5S,6R)-6-Methyl-2-oxo-1-(2,2,2-trifluoroethyl)-5-(2,3,5-trifluorophenyl)piperidin-3-yl]-2′-oxo-1′,2′,5,7-tetrahydrospiro[cyclopenta[b]pyridine-6,3′-pyrrolo[2,3-b]pyridine]-3-carboxamide dihydrochloride], 0.017 nM; to `O=C(N[C@H]1C[C@@H](c2ccccc2F)CN(CC(F)(F)F)C1=O)c1cnc2c(c1)C[C@@]1(C2)C(=O)Nc2ncccc21` [Example 6], 0.21 nM. As for `CN1C[C@H](c2cccc(F)c2F)CC[C@@H](NC(=O)c2ccc3c(c2)CC2(C3)C(=O)Nc3ncccc32)C1=O` (stereo partly drawn) [Example 8 from U.S. Pat. No. 7,390,798], the Ki in assay [4] (setting [7]) stood at 7.4 nM. Still for that read-out and setting: in the case of `CC(C)(O)c1cnc2n1C[C@H](c1cccc(F)c1F)CC[C@H]2NC(=O)c1cc2c(cn1)CC1(C2)C(=O)Nc2ncccc21` (stereo partly drawn) [Example 8 from US 2010/0179166] it was 4.3 nM; in that of `O=C(N[C@@H]1CC[C@@H](c2cccc(F)c2F)CN(CC(F)(F)F)C1=O)c1ccc2c(c1)CC1(C2)C(=O)Nc2ncccc21` (stereo partly drawn) [Example 9 from U.S. Pat. No. 7,390,798], 1.9 nM; in that of `CC(C)(O)CN1C[C@H](c2cccc(F)c2F)CC[C@@H](NC(=O)c2ccc3c(c2)CC2(C3)C(=O)Nc3ncccc32)C1=O` (stereo partly drawn) [Example 10 from U.S. Pat. No. 7,390,798], 1.7 nM. `O=C(N[C@H]1C[C@@H](c2c(F)cccc2Cl)CN(CC(F)(F)F)C1=O)c1cnc2c(c1)C[C@@]1(C2)C(=O)Nc2ncccc21` [Example 11]: in assay [4] (setting [6]), the Ki came out at 0.25 nM. Same read-out and setting: to `O=C(N[C@H]1C[C@@H](c2cccc(F)c2F)CN(CC2CCC2)C1=O)c1cnc2c(c1)C[C@@]1(C2)C(=O)Nc2ncccc21` [Example 17] belongs 0.055 nM; to `C[C@@H]1[C@H](c2ccccc2)C[C@H](NC(=O)c2cnc3c(c2)C[C@@]2(C3)C(=O)Nc3ncc(C#N)cc32)C(=O)N1CC(F)(F)F` [Example 30], 0.14 nM; to `C[C@@H]1[C@H](c2ccccc2)C[C@H](NC(=O)c2cnc3c(c2)C[C@@]2(C3)C(=O)Nc3ncncc32)C(=O)N1CC(F)(F)F` [Example 31], 0.17 nM. Regarding `O=C(N[C@@H]1CC[C@@H](c2cccc(F)c2F)CN(CC(F)(F)F)C1=O)N1CCC(n2c(=O)[nH]c3ncccc32)CC1` [telcagepant], the antimigraine effectiveness result in assay [2] (phase III clinical trials, orally bioavailable) is listed as “shown antimigraine effectiveness”.

With “CGRP (8-37) (VTHRLAGLLSRSGGVVKNNFVPTNVGSKAF; ends and bridges not checked; UniProt P06881 90-119, looked up, fragment) [a peptide CGRP receptor antagonist]”, the “effect on increase of middle meningeal artery diameter” value in the assay on middle meningeal artery is “blocked”. Also, in the assay with facial blood flow [5], the “effect on increased facial blood flow” value is recorded as “inhibited”.
